Literature values as cited in US20160069160A1, “TREATMENT OF MICROBIAL-INFLUENCED CORROSION” (TRICAN WELL SERVICE LTD., priority 2014, published 2016).

System: microbes

Row | Compound | efficacy at low pH (below pH 5) | concentration required to be effective at pH 7 relative to pH 9 (pH 7 vs pH 9) [times higher] | effect of pH on microbial control
1 | O=CCCCC=O [glutaraldehyde] | significantly reduced | 4 to 6 | –
2 | tetrakis(hydroxymethyl)phosphonium sulfate [THPS] | – | – | unaffected by pH
